Where two headings read alike, the source gives them in different places.
How the values were obtained:
Type in all cases: cell-based
[1] = molecular target: T1, OR7C1 (Homo sapiens, UniProt O76099, D296E/G302K/M297V/R299D/T295K); assay: Luciferase dose-response, wild-type vs changed C-terminus (SEQ ID NO: 86); settings: for EC50: read-out: Potency EC50
T1 construct: expressed in transfected cells; host or cells: HEK293T cells stably expressing human RTP1S (V227I) and RTP2 (L220R); transient transfection of pcDNA3.1(+) OR plasmid
T1 sequence (O76099 with tags, fused parts or gaps T295K/D296E/M297V/R299D/G302K limits assumed): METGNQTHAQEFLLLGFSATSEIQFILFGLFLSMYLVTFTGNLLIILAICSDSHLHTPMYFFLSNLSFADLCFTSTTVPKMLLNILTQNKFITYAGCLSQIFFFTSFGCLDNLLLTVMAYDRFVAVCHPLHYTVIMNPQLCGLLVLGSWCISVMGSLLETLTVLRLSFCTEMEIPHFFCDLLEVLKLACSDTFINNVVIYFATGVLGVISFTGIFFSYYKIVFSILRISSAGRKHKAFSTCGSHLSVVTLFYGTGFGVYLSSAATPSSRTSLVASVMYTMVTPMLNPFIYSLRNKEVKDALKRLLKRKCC
Text: (§1) To create an expression plasmid, an OR coding sequence fused at the end of TM7 to the desired C-terminus sequence was synthesized by a DNA synthesis service provider (BioCat GmbH, Germany) and inserted into pcDNA3.1(+) (Invitrogen, MA, USA) downstream of the CMV promoter sequence (SEQ ID NO: 82) using BamHI and Notl restriction sites. All the synthetic OR nucleotide sequences described below in Examples 1-15 further contained at their N-terminus a nucleotide sequence encoding a signal peptide (mmLucy-FLAG-rho, SeQ ID NOs: 80, 81) and at the C-terminus the bgh terminator sequence (SEQ ID NO: 83). All the OR expression plasmids also contain a Kozak sequence (GCCACC) between the BamHI restriction site and the start codon of the signal peptide. These plasmids thus contain a constitutively expressed OR gene.

[2] = molecular target: T2, OR2T4 (Homo sapiens, UniProt Q8NH00, D328E/G331D/M330K); assay: cell-based; settings: OR2T4 with SEQ ID NO: 86
T2 construct: expressed in transfected cells; host or cells: HEK293T cells stably expressing human RTP1S (V227I) and RTP2 (L220R)
T2 sequence (Q8NH00 with tags, fused parts or gaps D328E/M330K/G331D): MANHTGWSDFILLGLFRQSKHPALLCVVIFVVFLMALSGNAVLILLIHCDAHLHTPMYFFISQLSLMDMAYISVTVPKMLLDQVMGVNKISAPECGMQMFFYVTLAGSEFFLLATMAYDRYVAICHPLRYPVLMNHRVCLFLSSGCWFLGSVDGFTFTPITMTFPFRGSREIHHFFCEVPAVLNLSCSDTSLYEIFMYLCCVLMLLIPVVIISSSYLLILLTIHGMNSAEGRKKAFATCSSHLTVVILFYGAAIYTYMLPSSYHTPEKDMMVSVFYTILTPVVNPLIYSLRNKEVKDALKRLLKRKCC
Text: as §1

[3] = molecular target: T3, OR2J2 (Homo sapiens, UniProt O76002, A146V/A218T/A302I/G300K/H297E/H74Y); assay: Luciferase assay with odorant mixtures/single ingredients, OR with SEQ ID NO: 221
T3 construct: expressed in transfected cells; host or cells: HEK293T stably expressing human RTP1S(V227I) and RTP2(L220R) (general method)
T3 sequence (O76002 with tags, fused parts or gaps H74Y/A146V/A218T/H297E/G300K/A302I): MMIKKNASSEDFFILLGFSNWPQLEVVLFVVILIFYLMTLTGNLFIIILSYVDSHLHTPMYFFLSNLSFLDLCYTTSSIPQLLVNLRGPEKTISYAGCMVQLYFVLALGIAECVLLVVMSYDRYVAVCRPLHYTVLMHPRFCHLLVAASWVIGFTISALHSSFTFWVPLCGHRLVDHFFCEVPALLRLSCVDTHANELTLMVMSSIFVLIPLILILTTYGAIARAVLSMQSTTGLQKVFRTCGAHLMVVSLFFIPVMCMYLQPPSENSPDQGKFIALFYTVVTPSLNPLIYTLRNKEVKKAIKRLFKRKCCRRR
Text: (§2) All human class II OR and all key genetic variants of these OR were synthesized with a sequence coding for an identical modified C-terminal domain […] (SEQ ID NO: 221) in the vector pcDNA3.1(+) to generate a library of all class II OR with an improved C-terminal domain. Class II OR library members with modified C-terminal domains
(§3) Similarly, a mixture of odorants with fruity-lactonic descriptors was made containing equal amounts of dodecalactone delta, heptalactone gamma, octalactone gamma, nonalactone gamma, undecalactone gamma, decalactone gamma, dodecalactone gamma, decalactone delta, methyl tuberate and nectaryl. […] Table 25. OR identified by screening class II OR with a mixture of fruity lactones
(§4) In a subsequent de-convolution experiment, the single ingredients were tested in a dose-response test on all the identified OR. […] Thus, OR2AP1 and OR2J2 are particularly strongly activated by the long-chain dodecalactone gamma, while OR10A3 is very sensitive to several longer chain lactones. […] Among the five OR, OR10A3 is the most sensitive. […] Table 26. OR identified by screening class II OR with a mixture of fruity lactones tested with individual lactones in a dose-response analysis

[4] = molecular target: T4, OR10A3 (Homo sapiens, UniProt P58181); assay: as above
T4 construct: expressed in transfected cells; host or cells: HEK293T stably expressing human RTP1S(V227I) and RTP2(L220R) (general method)
T4 sequence (P58181 with tags, fused parts or gaps): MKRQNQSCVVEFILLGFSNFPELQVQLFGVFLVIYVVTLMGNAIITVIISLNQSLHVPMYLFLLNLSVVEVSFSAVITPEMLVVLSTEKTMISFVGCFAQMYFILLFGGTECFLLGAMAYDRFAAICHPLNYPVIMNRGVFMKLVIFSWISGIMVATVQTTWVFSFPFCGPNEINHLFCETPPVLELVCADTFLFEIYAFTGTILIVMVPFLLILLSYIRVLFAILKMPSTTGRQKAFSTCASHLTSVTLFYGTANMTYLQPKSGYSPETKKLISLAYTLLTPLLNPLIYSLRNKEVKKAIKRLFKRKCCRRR
Text: as §2, §3, §4

[5] = molecular target: T5, OR10A6(A117V,V140G,L287P) (Homo sapiens, UniProt Q8NH74, A117V/L287P/V140G); assay: as above
T5 construct: expressed in transfected cells; host or cells: HEK293T stably expressing human RTP1S(V227I) and RTP2(L220R) (general method)
T5 sequence (Q8NH74 with tags, fused parts or gaps A117V/V140G/L287P): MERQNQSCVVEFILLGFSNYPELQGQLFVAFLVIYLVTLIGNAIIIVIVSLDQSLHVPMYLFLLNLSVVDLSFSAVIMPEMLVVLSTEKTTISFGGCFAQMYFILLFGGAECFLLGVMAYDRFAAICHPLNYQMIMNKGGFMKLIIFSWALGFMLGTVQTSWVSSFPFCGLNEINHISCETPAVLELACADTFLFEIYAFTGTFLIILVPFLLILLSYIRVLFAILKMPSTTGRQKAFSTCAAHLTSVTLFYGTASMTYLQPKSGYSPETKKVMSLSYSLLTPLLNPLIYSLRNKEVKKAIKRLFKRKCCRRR
Text: as §2, §3, §4

[6] = molecular target: T6, OR10J1(M51I,I92M) (Homo sapiens, UniProt P30954, I103M/M62I); assay: as above
T6 construct: expressed in transfected cells; host or cells: HEK293T stably expressing human RTP1S(V227I) and RTP2(L220R) (general method)
T6 sequence (P30954 with tags, fused parts or gaps M62I/I103M): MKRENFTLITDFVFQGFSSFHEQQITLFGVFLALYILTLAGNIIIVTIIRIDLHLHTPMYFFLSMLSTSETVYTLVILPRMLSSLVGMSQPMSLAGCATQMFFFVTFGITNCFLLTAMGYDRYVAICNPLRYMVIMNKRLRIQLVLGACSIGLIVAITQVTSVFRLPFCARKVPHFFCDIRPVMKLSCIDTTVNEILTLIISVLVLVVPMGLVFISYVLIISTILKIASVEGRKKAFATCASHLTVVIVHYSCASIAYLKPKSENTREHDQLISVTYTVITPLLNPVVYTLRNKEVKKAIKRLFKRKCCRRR
Text: as §2, §3, §4

[7] = molecular target: T7, OR2AP1 (Homo sapiens, UniProt Q8NGE2); assay: as above
T7 construct: expressed in transfected cells; host or cells: HEK293T stably expressing human RTP1S(V227I) and RTP2(L220R) (general method)
T7 sequence (Q8NGE2 with tags, fused parts or gaps): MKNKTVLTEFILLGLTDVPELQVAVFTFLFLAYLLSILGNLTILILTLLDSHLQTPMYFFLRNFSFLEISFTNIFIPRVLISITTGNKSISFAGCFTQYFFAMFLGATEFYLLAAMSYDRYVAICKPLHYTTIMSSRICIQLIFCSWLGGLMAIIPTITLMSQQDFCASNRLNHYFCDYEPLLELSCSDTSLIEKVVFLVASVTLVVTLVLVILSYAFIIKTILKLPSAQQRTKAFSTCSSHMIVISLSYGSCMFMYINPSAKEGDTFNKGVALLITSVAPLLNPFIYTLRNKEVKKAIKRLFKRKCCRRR

Row | SMILES | EC2 (concentration for 2-fold luciferase induction) [3] | EC10 (concentration for 10-fold OR activation) [4] | EC2 (concentration for 2-fold luciferase induction) [5] | EC2 (concentration for 2-fold luciferase induction) [6] | EC2 (concentration for 2-fold luciferase induction) [7] | other results
1 | CC(CO)C1=C2C(C)(C)C3CCC2(C3)C(C)(C)CC1 (stereo not drawn) [Ambermax] |  |  |  |  |  | Comments on efficacy [1]: 3.5-fold lower maximal induction for wild-type; Fold-improvement potency [1]: 2.7; Fold-improvement threshold [1]: 16.2; luciferase induction ([1]; 1 µM, OR7C1 with SEQ ID NO: 86): around 10 fold; EC50 ([1]; changed C-term SEQ ID NO: 86): 2.3 µM; Detection threshold; concentration for 2-fold induction ([1]; changed C-term. SEQ ID NO: 86): 0.17 µM; Detection threshold; concentration for 2-fold induction ([1]; wild-type): 2.76 µM; EC50 ([1]; wild-type): 6.14 µM
2 | CCCSSCCC [dipropyl disulfide] |  |  |  |  |  | ligands identified in screening of sulfur odorants [2]: good ligands
3 | CCCCCC1CCC(=O)O1 (stereo not drawn) [Nonalactone gamma] | 12.85 µM | 2.83 µM | 11.34 µM | 11.14 µM | inactive | 
4 | CC1OCCC1S (stereo not drawn) [2-methyl-3-tetrahydrofuranthiol] |  |  |  |  |  | ligands identified in screening of sulfur odorants [2]: good ligands
5 | CCCC1CCC(=O)O1 (stereo not drawn) [Heptalactone gamma] | inactive | 298.04 µM | inactive | inactive | inactive | 
6 | CCCCCCCCC1CCC(=O)O1 (stereo not drawn) [Dodecalactone gamma] | 1.41 µM | 0.85 µM | 0.48 µM | 5.31 µM | 1.31 µM | 
7 | CCCCCCC1CCC(=O)O1 (stereo not drawn) [Decalactone gamma] | 3.27 µM | 0.84 µM | 1.62 µM | 3.63 µM | 33.66 µM | 
8 | CCCCC1CCC(=O)O1 (stereo not drawn) [Octalactone gamma] | 65.20 µM | 26.93 µM | inactive | 101.73 µM | inactive | 
9 | CCCCCCCC1CCCC(=O)O1 (stereo not drawn) [Dodecalactone delta] | 35.12 µM | 2.59 µM | 1.11 µM | 31.38 µM | 15.76 µM | 
10 | CCCCCC1CCCC(=O)O1 (stereo not drawn) [Decalactone delta] | 98.89 µM | 2.10 µM | 5.31 µM | 31.73 µM | inactive | 
11 | CCCCCCCC1CCC(=O)O1 (stereo not drawn) [Undecalactone gamma] | 0.71 µM | 0.28 µM | 0.34 µM | 2.11 µM | 6.53 µM | 
12 | CC1=CCC(C(C)CC2CCCC2=O)CC1 (stereo not drawn) [Nectaryl] |  | 2.32 µM | 1.12 µM | inactive | 19.72 µM | 
